Assay results reported in US20250280861A1, “SWEETENER COMPOSITIONS” (Firmenich Incorporated, priority 2022, published 2025).

Legend:
panelists = experiment: sweet enhancement taste tests (paired comparison, panelists choose the sweeter sample); type: in vivo, human; details: for HFCS and sucrose sweet enhancement effect: taste tests, pH 2.8, concentration far below its sweetness threshold
Method: Test samples containing either a sweetener (sucrose or high-fructose corn syrup (HFCS)) alone or in combination with a test compound were presented in pairs to a group of panelists who were asked to determine which of the samples was sweeter. Subjects refrained from eating or drinking (except water) for at least 1 hour prior to the test. Subjects rinsed with water several times to clean the mouth. The samples within a paired comparison test were presented in a randomized, counterbalanced order. Panelists had up to a 1 minute delay between taste tests to clear the mouth of any tastes. Binomial probability tables were used to determine the probability of the correct number of responses occurring for each test at alpha-0.05.

[1] = target: T1, hT1R2/T1R3 taste receptor (Homo sapiens, UniProt Q7RTX0+Q8TE23); experiment: agonist activity against the hT1R2/T1R3 taste receptor (sweet receptor based assay); type: cell-based; details: agonist activity, hT1R2/T1R3; read-out: Sweet EC50
T1 sequence (Q8TE23 20-839): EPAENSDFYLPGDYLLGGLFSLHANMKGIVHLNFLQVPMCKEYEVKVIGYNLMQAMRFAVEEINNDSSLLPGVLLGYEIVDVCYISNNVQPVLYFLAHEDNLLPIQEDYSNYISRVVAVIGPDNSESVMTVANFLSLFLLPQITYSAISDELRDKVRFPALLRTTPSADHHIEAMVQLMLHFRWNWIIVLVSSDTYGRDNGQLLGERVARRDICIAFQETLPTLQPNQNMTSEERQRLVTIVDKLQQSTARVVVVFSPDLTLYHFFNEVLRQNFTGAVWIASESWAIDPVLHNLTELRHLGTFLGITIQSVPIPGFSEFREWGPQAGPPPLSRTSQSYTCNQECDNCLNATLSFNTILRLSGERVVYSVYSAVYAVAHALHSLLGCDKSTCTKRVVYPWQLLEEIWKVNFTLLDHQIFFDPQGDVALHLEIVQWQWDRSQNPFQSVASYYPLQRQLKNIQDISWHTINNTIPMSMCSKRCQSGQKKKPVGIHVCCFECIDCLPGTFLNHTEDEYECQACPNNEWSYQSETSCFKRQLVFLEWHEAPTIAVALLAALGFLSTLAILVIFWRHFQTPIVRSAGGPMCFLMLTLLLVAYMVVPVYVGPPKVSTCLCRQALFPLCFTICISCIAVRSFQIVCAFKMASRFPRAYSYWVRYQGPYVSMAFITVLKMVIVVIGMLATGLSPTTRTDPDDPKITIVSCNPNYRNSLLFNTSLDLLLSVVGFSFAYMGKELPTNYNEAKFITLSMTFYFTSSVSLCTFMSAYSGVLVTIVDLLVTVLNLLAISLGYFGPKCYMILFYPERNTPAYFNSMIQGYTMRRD
T1 sequence (Q7RTX0 21-852): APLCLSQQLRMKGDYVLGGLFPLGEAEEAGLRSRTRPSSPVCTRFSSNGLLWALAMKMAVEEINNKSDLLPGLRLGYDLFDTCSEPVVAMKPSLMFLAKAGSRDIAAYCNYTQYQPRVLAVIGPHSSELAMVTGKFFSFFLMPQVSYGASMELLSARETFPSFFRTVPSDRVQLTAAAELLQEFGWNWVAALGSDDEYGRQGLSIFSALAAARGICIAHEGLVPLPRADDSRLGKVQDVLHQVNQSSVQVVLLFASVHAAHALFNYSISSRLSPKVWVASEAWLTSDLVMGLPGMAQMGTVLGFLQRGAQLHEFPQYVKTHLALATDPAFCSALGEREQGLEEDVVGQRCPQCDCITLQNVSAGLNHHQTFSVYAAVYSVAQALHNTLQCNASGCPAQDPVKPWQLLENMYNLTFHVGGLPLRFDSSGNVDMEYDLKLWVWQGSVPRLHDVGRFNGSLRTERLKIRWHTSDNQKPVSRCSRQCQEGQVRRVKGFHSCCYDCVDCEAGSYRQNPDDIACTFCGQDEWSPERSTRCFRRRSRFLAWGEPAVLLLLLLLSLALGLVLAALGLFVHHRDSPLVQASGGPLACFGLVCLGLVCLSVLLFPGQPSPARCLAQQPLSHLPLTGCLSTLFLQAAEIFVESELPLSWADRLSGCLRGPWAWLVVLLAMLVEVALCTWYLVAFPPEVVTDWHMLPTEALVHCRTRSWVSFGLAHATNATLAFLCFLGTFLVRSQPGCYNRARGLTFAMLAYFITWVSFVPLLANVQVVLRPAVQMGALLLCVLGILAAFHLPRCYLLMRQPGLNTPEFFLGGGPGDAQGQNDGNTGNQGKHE
Method: Compounds described in this application show moderate to potent agonist effect on the sweet receptor based assay. Potencies (EC50 values, e.g. see Tables 1-3) for agonist activity were measured against the hT1R2/T1R3 taste receptor. FIG. 1 exemplifies the data generated during the screening to determine EC50 values.

[2] = Study 1: 10 ppm Compound 78 vs 1.5% Sucrose, pH 2.8
[3] = Study 2: 7 ppm Compound 78 + 6% sucrose vs 8% Sucrose

OC[C@H]1O[C@@](CO)(O[C@H]2O[C@H](CO)[C@@H](O)[C@H](O)[C@H]2O)[C@@H](O)[C@@H]1O [Sucrose, sucrose, reference compound]
Results (which of the samples was sweeter) (panelists; [2]): 42
Results (which of the samples was sweeter) (panelists; [3]): 24

COCc1cccc(C2CCN(C(COC)C(=O)NCC(C)C)CC2)c1F (stereo not shown) [Compound 78, 2-(4-(2-fluoro-3-(methoxymethyl)phenyl)piperidin-1-yl)-N-isobutyl-3-methoxypropanamide]
EC50 [1]: 1300 nM
Results (which of the samples was sweeter) (panelists; [2]): 9
Results (which of the samples was sweeter) (panelists; [3]): 21
Results (which of the samples was sweeter) (panelists; Study 3: 9 ppm Compound 78 + 6% HFCS vs 8% HFCS): 22
HFCS and sucrose sweet enhancement effect (panelists): remarkable HFCS and Sucrose sweet enhancement effect
HFCS and sucrose sweet enhancement effect (panelists; listed as compound 78): significant enhancement
sweetness compared with 1.5% sucrose (panelists; test #1, 10 ppm, pH 2.8): significantly less sweet
sweetness compared with 8% sucrose (panelists; test #2, 10 ppm of compound 78+6% sucrose): no significant difference in sweetness
